Reference: ChEMBL document CHEMBL1133274 (Bioorg Med Chem Lett, 2000)

What was measured:
Homo sapiens [1] = species on record: Homo sapiens; assay: Cytotoxicity of compound was determined against Lo Vo colon cancer cells; format: functional, cell-based; conditions: Cancer cell lines
Homo sapiens [2] = species on record: Homo sapiens; assay: Cytotoxicity of compound was determined against Lo Vo colon cancer cells in presence of GUS from Escherichia coli; format: functional, cell-based; conditions: Cancer cell lines

Which results are given for `O=C(O)[C@@H]1O[C@@H](Oc2ccc(COC(=O)N(CCCl)CCCl)cc2[N+](=O)[O-])[C@@H](O)[C@@H](O)[C@@H]1O`?
IC50 (Homo sapiens [1]): > 400 µM; IC50 (Homo sapiens [2]): 95 µM
